Broadly, the Ki is a dissociation constant, usually derived from enzyme kinetics or from competition with a known ligand. Read a low Ki as a stronger hold on the target. In general, IC50 refers to the concentration that gives 50% inhibition.

What all share (type): binding
For experiment [1], the target named is T1, STAT5b (Homo sapiens, UniProt P51692).
T1 sequence (P51692 1-787): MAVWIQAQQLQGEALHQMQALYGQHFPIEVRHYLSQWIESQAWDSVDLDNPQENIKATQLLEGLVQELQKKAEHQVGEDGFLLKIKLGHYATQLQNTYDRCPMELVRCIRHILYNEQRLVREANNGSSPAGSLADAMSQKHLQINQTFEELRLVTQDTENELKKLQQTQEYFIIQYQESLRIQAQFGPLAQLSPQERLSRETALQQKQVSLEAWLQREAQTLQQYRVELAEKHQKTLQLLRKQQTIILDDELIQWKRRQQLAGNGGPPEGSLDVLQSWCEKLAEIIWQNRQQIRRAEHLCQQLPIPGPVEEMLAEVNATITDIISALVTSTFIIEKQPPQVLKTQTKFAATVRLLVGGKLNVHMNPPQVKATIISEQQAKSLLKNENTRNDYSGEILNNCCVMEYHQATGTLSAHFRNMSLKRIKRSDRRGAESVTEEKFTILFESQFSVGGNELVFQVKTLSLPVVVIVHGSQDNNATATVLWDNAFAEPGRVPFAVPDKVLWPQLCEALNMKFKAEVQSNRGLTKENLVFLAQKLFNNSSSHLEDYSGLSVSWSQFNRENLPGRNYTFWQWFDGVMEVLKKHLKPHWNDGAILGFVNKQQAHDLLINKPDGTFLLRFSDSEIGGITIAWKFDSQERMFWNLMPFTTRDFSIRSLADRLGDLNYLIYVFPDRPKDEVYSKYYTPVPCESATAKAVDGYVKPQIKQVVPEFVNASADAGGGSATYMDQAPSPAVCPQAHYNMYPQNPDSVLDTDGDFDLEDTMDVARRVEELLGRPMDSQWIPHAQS
Put plainly: Competitive fluorescence polarization (FP) assay, STAT5b SH2 domain. The following applies: for Ki: Ki derived from IC50; for IC50: mean ± SD, n = 3. As for the experimental part:
(§1) Fluorescence polarization assays
(§2) Competitive fluorescence polarization assays, which measure the abilities of test compounds (dissolved in DMSO) to displace a fluorescent-labeled peptide from the SH2 domain of a STAT protein, were carried out essentially as described. Proteins were used at the following final concentrations: 23 nM or 28 nM for STAT4; between 56 nM and 91 nM for STAT1; 107 nM or 110 nM for STAT3; between 131 nM and 177 nM for STAT5a; between 62 nM and 85 nM for STAT5b; and 101 nM or 106 nM for STAT6. These concentrations represent the approximate […]
(§3) dissociation constant for peptide binding of the respective protein batches used in the assays.
(§4) The following peptides were used: 5-carboxyfluorescein-GpYLPQNID-OH for STAT4; 5-carboxyfluorescein-GpYDKPHVL for STAT1; 5-carboxyfluorescein-GpYLPQTV-NH2 for STAT3; 5-carboxyfluorescein-GpYLVLDKW for STAT5a/b, and 5-carboxyfluorescein- […]
(§5) Gp[…]-OH for STAT6. All peptides were used at a final concentration of 10 nM. The buffer consisted of 10 mM Tris (pH 8.0), 50 mM NaCl, 1 mM EDTA, 1 mM DTT, 0 .1 % Nonidet P-40 substitute, and 2 % DMSO. After incubation of protein and test compound for 1 h at room temperature, the fluorescent -labeled peptide was added. Samples were transferred to 384 - well microtiter plates and fluorescence polarization was read after an additional 60 min of incubation time. Measurements were performed in triplicate. Percent binding was calculated based on a logarithmic curve fit using OriginPro 8G software. IC 50 values were converted to Ki-values via the published equation[3] using the corresponding Excel spread sheet […]
(§6) https://websites.umich.edu/~shaomengwanglab/software/calc_ki/index.html .
(§7) Error bars represent standard deviations. Ligand efficiencies (LE) were calculated by the formula LE = -1,37 x log Ki / number of non-hydrogen atoms.[4] […]

The target of experiment [2] is T2, STAT5a (Homo sapiens, UniProt P42229).
T2 sequence (P42229 1-794): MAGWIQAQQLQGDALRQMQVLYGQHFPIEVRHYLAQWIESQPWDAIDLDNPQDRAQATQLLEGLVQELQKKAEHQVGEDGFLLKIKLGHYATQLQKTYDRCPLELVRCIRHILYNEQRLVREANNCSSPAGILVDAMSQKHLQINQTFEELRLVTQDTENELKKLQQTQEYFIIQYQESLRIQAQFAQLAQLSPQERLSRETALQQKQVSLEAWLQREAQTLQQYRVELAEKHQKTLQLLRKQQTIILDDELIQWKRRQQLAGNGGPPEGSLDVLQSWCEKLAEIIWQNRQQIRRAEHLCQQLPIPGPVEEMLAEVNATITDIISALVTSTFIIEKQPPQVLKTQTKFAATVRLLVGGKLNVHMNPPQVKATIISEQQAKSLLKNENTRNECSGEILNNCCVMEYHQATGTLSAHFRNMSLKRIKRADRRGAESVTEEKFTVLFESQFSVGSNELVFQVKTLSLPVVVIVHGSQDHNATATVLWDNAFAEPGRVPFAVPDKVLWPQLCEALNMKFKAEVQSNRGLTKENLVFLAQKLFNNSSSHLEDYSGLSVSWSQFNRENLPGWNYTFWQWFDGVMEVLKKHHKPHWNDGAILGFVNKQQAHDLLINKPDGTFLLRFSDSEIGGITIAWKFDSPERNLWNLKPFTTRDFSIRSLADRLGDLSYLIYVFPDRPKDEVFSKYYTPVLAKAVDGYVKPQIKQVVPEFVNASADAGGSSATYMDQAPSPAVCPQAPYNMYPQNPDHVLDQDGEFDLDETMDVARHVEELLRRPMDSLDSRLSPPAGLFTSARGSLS
Put plainly: Competitive fluorescence polarization (FP) assay, STAT5a SH2 domain. The following applies: for Ki: Ki derived from IC50; for IC50: mean ± SD, n = 3. As to the method:
as §1, §2, §3, §4, §5, §6, §7
In general terms: Polarisation of emitted light reports the rotation of a fluorescent probe.

Experiment [3] deals with STAT3 (Homo sapiens, UniProt P40763). Kind of experiment: Competitive fluorescence polarization (FP) assay, STAT3 SH2 domain. The following applies: for IC50: mean ± SD, n = 3; for Ki: tracer 5-carboxyfluorescein-GpYLPQTV-NH2, Ki derived from IC50. As to the method:
as §1, §2, §3, §4, §5, §6, §7

Sequence of STAT3 (P40763 whole entry, species assumed, the tested form may be a part): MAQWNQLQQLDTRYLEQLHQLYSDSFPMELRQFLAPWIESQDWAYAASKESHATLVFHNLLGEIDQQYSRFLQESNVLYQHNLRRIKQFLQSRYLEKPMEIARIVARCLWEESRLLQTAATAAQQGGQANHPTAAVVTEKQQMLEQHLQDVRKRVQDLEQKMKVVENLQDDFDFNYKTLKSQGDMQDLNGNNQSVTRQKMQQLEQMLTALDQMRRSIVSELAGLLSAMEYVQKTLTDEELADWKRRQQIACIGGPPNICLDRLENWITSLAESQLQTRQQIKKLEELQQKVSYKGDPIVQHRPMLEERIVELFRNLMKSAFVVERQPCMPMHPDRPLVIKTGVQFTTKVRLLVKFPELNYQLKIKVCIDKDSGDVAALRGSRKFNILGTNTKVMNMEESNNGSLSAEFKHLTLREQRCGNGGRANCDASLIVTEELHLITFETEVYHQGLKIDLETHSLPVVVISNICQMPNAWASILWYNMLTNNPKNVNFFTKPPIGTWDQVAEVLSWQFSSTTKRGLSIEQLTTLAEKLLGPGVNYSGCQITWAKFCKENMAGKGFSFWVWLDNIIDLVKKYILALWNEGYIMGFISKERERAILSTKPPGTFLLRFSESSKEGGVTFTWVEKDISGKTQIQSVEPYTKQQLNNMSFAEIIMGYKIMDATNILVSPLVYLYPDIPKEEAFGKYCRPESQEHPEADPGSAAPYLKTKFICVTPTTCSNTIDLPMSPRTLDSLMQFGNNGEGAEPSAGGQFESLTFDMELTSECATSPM

For `O=P(O)(O)Oc1ccc(-c2ccccc2)cc1` [Compound 1, para‐biphenyl phosphate], the Ki is 47 ± 3 µM in experiment [1], 22 ± 2 µM in experiment [2] and 8.4 ± 1 µM in experiment [3]. The IC50 in experiment [1] amounted to 95 ± 6 µM; in experiment [2], 42 ± 4 µM; in experiment [3], 18 ± 3 µM.

For the compound `O=P(O)(O)Oc1ccc(-c2ccc3ccccc3c2)cc1` [Compound 6g], the Ki in experiment [1] amounted to 53 ± 5 µM; in experiment [2], 27 ± 2 µM; in experiment [3] it was 18 ± 1 µM. In addition, the IC50 stood at 109 ± 11 µM in experiment [1], 55 ± 4 µM in experiment [2] and 37 ± 2 µM in experiment [3].

As to `O=P(O)(O)Oc1ccc(-c2ccccc2)cc1F` [Compound 6h], the Ki in experiment [1] is 45 ± 7 µM; in experiment [2], 28 ± 1 µM; in experiment [3], 4.5 ± 0.3 µM. Further, the values for the IC50 in experiment [1], in experiment [2] and in experiment [3] were 91 ± 14 µM, 57 ± 2 µM and 9.1 ± 0.6 µM, respectively.

Take `O=P(O)(O)Oc1ccc(-c2ccc3ccccc3c2)cc1F` [Compound 6m]: the Ki came to 26 ± 2 µM in experiment [1], 22 ± 1 µM in experiment [2] and 5 ± 0.5 µM in experiment [3]. Moreover, the results for the IC50 in experiment [1], in experiment [2] and in experiment [3] were 52 ± 4 µM, 45 ± 2 µM and 10 ± 1 µM, respectively.

For the compound `O=P(O)(O)C(F)(F)c1ccc(-c2ccc3ccccc3c2)cc1F` [Compound 8a], the figures for the Ki in experiment [1], in experiment [2] and in experiment [3] were 39 ± 1 µM, 27 ± 1 µM and 22 ± 1 µM, respectively. For the same compound, the IC50 turned out to be 79 ± 3 µM in experiment [1], 54 ± 3 µM in experiment [2] and 44 ± 2 µM in experiment [3].

`Cc1cc(-c2ccc(C(F)(F)P(=O)(O)O)c(F)c2)cs1` [Compound 8k]: the Ki in experiment [1] was 64 ± 7 µM; in experiment [2], 39 ± 1 µM; in experiment [3], 15 ± 2 µM. The IC50 came out at 130 ± 14 µM in experiment [1], 79 ± 2 µM in experiment [2] and 31 ± 4 µM in experiment [3].

For the origin of these results see paper PMC12087874, “Biaryl Phosphates and Phosphonates as Selective Inhibitors of the Transcription Factor STAT4” (Angewandte Chemie (International Ed. in English), 2025).
